How the values were obtained:
C57BF6/N male mice [1] = assay: Fentanyl-induced hyperalgesia, tail immersion test; format: in vivo; conditions: FIG. 6B
hNPFF1R = biological target: T1, hNPFF1R (Homo sapiens, UniProt Q9GZQ6); assay: Glo Sensor cAMP assay in HEK-293 expressing hNPFF1R; format: cell-based; conditions: HEK-293 cells expressing hNPFF1R; FIG. 7
T1 construct: expressed in transfected cells
Procedure: The functional characterization of the selected compounds was performed by Glo Sensor cAMP kinetic assay, a validated approach for measuring Gαi/s activation by GPCRs (DiRaddo et al., 2014; Gilissen et al., 2015). HEK-Glo cells expressing either NPFF1 or NPFF2 receptors were suspended (10^6 cells per mF) in physiological Hepes buffer (10 mM HEPES, 0.4 mM NaH2PO4, 137.5 mM NaCl, 1.25 mM MgCl2, 1.25 mM CaCl2, 6 mM KCl, 10 mM glucose and 1 mg/mF bovine serum albumin, pH 7.4) supplemented with 1 mM D-Fuciferine. After equilibration for 2 h at 25° C., luminescence levels were recorded in real time in 96-well plates using a Flexstation^R 3 (Molecular Devices, Sunnyvale Calif., USA). Non-specific effect of the different compounds was evaluated in HEK-Glo cells without any recombinant human RF-amide receptors. To test the agonist activity on NPFF1R and NPFF2R, compounds were injected 15 minutes before addition of forskolin (0.5 μM) and readings were pursued for 90 minutes. To evaluate their antagonist properties, compounds were pre-incubated with cells for 15 minutes before prototypical agonists for NPFF1R (RFRP-3) and NPFF2R (NPFF) receptors. According to their preferential coupling to Gi/o proteins, the stimulation of NPFF1R and NPFF2R by agonists was monitored as a dose-dependent reduction in steady-state luminescence levels, reflecting the inhibition of forskolin-induced cAMP accumulation. Experiments were performed at 25° C. in the presence of 0.5 mM IBMX to prevent the degradation of cAMP by phosphodiesterases.

[2] = biological target: T2, human NPFFR1 (hNPFFR1) receptor (Homo sapiens, UniProt Q9GZQ6); assay: Human NPFFR1 evaluation using BRET biosensors in HEK-293 T cells; format: cell-based; conditions: hNPFFR1 in HEK-293 T cells, stimulated by EC80 RFRP-3, read-out: IC50 of antagonist activity
T2 construct: expressed in transfected cells; host or cells: HEK-293 T cells, transient co-transfection
T2 sequence (Q9GZQ6 whole entry): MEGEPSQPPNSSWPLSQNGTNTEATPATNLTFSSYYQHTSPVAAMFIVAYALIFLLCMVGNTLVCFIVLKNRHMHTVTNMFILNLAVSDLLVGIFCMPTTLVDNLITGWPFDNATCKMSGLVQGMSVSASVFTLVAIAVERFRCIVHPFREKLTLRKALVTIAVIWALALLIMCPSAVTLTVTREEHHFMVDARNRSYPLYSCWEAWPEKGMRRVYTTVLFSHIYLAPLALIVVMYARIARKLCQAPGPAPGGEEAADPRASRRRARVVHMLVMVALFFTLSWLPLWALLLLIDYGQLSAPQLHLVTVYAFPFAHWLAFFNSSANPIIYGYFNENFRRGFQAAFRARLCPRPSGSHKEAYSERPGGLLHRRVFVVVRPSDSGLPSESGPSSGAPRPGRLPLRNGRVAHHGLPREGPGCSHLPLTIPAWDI
Method in brief: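 HEK-293 T cells transiently co-expressing hNPFFR1, GαoB and a Gi-effector BRET biosensor pair; agonist read after 10 min compound alone, then antagonism after EC80 RFRP-3 for 10 min. IC50 from 20-point curves over 6 logs, duplicates in two independent experiments.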

hNPFFR2 = biological target: T3, hNPFFR2 (Homo sapiens, UniProt Q9Y5X5); assay: Radioligand binding competition, membranes from CHO cells expressing hNPFFR2; conditions: 0.015 nM [D-Tyr1[125I], N-MePhe3]-NPFF, 1 hr at 25° C., read-out: NPFF2-R Ki
T3 construct: expressed in transfected cells; membranes
T3 sequence (Q9Y5X5 whole entry): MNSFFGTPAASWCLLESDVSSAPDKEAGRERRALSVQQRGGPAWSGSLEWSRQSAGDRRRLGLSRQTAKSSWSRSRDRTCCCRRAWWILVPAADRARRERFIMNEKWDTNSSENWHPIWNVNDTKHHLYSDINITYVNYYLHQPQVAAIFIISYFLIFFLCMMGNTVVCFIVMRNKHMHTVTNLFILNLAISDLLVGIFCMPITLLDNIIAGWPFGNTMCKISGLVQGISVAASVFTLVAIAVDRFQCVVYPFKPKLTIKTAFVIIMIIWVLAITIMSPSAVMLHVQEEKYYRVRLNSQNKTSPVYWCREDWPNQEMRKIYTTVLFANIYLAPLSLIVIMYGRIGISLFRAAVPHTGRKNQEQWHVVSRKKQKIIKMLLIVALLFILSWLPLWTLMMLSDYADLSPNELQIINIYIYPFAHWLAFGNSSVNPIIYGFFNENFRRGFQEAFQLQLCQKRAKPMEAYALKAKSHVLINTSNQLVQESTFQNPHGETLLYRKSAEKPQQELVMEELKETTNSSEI
Procedure: (§1) Competition experiments with membranes from CHO cells stably expressing hNPFFR1 and hNPFFR2 were performed essentially as described in Elhabazi, K., et al. Neuropharmacology, 2013. 75C, 164-171., Briefly, hNPFFR1 or hNPFFR2 membranes (5 to 10 μg of proteins) were incubated (1 hr at 25° C.; 0.25 mL total volume) with 0.015 nM [D-Tyr1[125I], N-MePhe3]-NPFF (Hartmann Analytic GmbH) in 50 mM HEPES (pH 7.4), 1 mM CaCl2, 1 mM MgCl2 and 0.1% bovine serum albumin. Non-specific binding was determined in the presence of 10 μM RFRP-3. Incubation was terminated by rapid filtration through a 96-well GF/B unifilter apparatus (Perkin Elmer Life and Analytical Sciences, Courtaboeuf, France). Unifilters were washed five times with binding buffer, then dried for 1 h at 65° C. After addition of 40 μL scintillation cocktail (Microscint-O, Perkin Elmer) per well, bound radioactivity was determined on a TopCount scintillation counter (Perkin Elmer).

hNPFFR1 = biological target: T4, hNPFFR1 (Homo sapiens, UniProt Q9GZQ6); assay: Radioligand binding competition, membranes from CHO cells expressing hNPFFR1; conditions: 0.015 nM [D-Tyr1[125I], N-MePhe3]-NPFF, 1 hr at 25° C., read-out: NPFF1-R Ki
T4 construct: expressed in transfected cells; membranes
T4 sequence (Q9GZQ6 whole entry): as the sequence (Q9GZQ6 whole entry) above
Procedure: as §1

NPFF receptor = conditions: Simonin et al., PNAS (2006); cited from earlier work
rat = conditions: repeated administration of opiate analgesics; cited from earlier work
C57BF6/N male mice [3] = assay: Neuropathic pain model (chronic constriction injury), Von Frey test; format: in vivo; conditions: morphine 3 mg/kg sc. alone or 1j 5 mg/kg p.o. alone; FIG. 4B
C57BF6/N male mice [4] = assay: Morphine-induced hyperalgesia and tolerance, tail immersion test; format: in vivo
C57BF6/N male mice [5] = assay: Incisional pain model, Von Frey test; format: in vivo; conditions: morphine 2.5 mg/kg sc. alone or 1j 5 mg/kg po alone; FIG. 3B

T1 sequence (Q9GZQ6 whole entry): as above

Compound | IC50 [2] [µM] | Ki (hNPFFR2) [µM] | Ki (hNPFFR1) [µM] | other results
Cc1ccccc1-c1ccc(N)nc1N [Compound 1c, 3-(o-tolyl)pyridine-2,6-diamine] | 0.1 to 0.5 | 30 | 0.023 | fentanyl hyperalgesia (hyperalgesia index d1 to d4) (C57BF6/N male mice [1]; 0.2 mg/kg sc. 20 min before fentanyl 4×60 μg/kg sc.): prevented fentanyl hyperalgesia; fentanyl hyperalgesia (hyperalgesia index d1 to d4) (C57BF6/N male mice [1]; 1 mg/kg sc. 20 min before fentanyl 4×60 μg/kg sc.): prevented fentanyl hyperalgesia; antagonist activity: effect on dose response curve of NPVF (RFRP-3), forskolin-stimulated cAMP (hNPFF1R): antagonist activity similar as compound 1j
COc1ccccc1-c1ccc(N)nc1N [Compound 2b, 3-(2-methoxyphenyl) pyridine-2,6-diamine] | 0.1 to 0.5 | 3 | 0.0138 | –
Nc1ccc(-c2cccc(Cl)c2)c(N)n1 [Compound 1h, 3-(3-chlorophenyl)pyridine-2,6-diamine] | 0.5 to 1 | 0.3 | 0.09 | –
Nc1ccc(Cc2ccc(Cl)cc2)c(N)n1 [Compound 10c, 3-(4-chlorobenzyl)pyridine-2,6-diamine] | 0.5 to 1 | 2.7 | 0.056 | –
Cc1ccccc1-c1c(C)cc(N)nc1N [Compound 8b, 4-methyl-3-(o-tolyl)pyridine-2,6-diamine] | > 1 | 4.6 | 0.183 | –
Nc1ccc(Cc2ccc(Cl)cc2Cl)c(N)n1 [Compound 10f, 3-(2,4-dichlorobenzyl)pyridine-2,6-diamine] | 0.1 to 0.5 | 0.5 | 0.0037 | –
Nc1ccc(Cc2ccccc2)c(N)n1 [Compound 10a, 3-benzylpyridine-2,6-diamine] | > 1 | 2.8 | 0.076 ± 0.012 | –
N^α-adamantan-1-yl-L-Arg-L-Phe-NH2 acetate [RF9] | – | – | – | NPFF receptor antagonist potency (NPFF receptor): first nanomolar NPFF receptor antagonist; antihyperalgesic activity in vivo (rat): reversing hyperalgesia induced by the repeated administration of opiate analgesics
CN1CC[C@]23c4c5ccc(O)c4O[C@H]2[C@@H](O)C=C[C@H]3[C@H]1C5.Cl [morphine, Morphine hydrochloride, reference compound] | – | – | – | mechanical allodynia after CCI (allodynia index d11-d21), drug alone (C57BF6/N male mice [3]): slightly but not significantly prevented the mechanical allodynia; Hyperalgesia index (HI) d1 to d7 (C57BF6/N male mice [4]; daily morphine 10 mg/kg s.c., 1j 5 mg/kg oral or vehicle before morphine, FIG. 2B): −16.2±2; peak of analgesia at day 8 (C57BF6/N male mice [4]; morphine 5 mg/kg s.c. alone or combined with 1j 5 mg/kg p.o., after chronic morphine, FIG. 2C): 9±0.8; peak of analgesia at day 0 (C57BF6/N male mice [4]; morphine 5 mg/kg s.c. alone or combined with 1j 5 mg/kg p.o., FIG. 2C): 17±0.8; mechanical allodynia after paw incision (allodynia index d1-d6), drug alone (C57BF6/N male mice [5]): failed to prevent significantly the mechanical allodynia
Nc1ccc(-c2cc(Cl)cc(Cl)c2)c(N)n1 [Compound 1o, 3-(3,5-dichlorophenyl) pyridine-2,6-diamine] | > 1 | ~5 | ~0.5 | –
CCc1nc(N)ccc1-c1cccc(Cl)c1Cl [Compound 6c, 5-(2,3-dichlorophenyl)-6-ethylpyridin-2-amine] | 0.5 to 1 | 0.8 | 0.025 | –
CC(C)COc1ccccc1-c1ccc(N)nc1N [Compound 2g, 3-(2-isobutoxyphenyl) pyridine-2,6-diamine] | 0.1 to 0.5 | 0.7 | 0.009 | –
Nc1ccc(Cc2ccccc2Cl)c(N)n1 [Compound 10e, 3-(2-chlorobenzyl)pyridine-2,6-diamine] | 0.1 to 0.5 | 0.45 | 0.0037 | –
COc1cccc(-c2ccc(N)nc2N)c1OC [Compound 2l, 3-(2,3-dimethoxyphenyl) pyridine-2,6-diamine] | > 1 | 0.9 | 0.026 | –
CCOc1ccccc1-c1ccc(N)nc1N [Compound 2d, 3-(2-ethoxyphenyl)pyridine-2,6-diamine] | 0.1 to 0.5 | 0.7 | 0.015 | –
CCCc1nc(N)ccc1-c1ccccc1OC [Compound 6g, 5-(2-methoxyphenyl)-6-propylpyridin-2-amine] | 0.1 to 0.5 | 0.47 | 0.0063 | –
Nc1ccc(-c2ccccc2O)c(N)n1 [Compound 2a, 2-(2,6-diaminopyridin-3-yl)phenol] | 0.5 to 1 | 1.1 | 0.0118 | –
Nc1ccc(-c2cc(Cl)ccc2Cl)c(N)n1 [Compound 1l, 3-(2,5-dichlorophenyl) pyridine-2,6-diamine] | 0.1 to 0.5 | 26.7 | 0.335 | –
Nc1ccc(-c2ccccc2C(F)(F)F)c(N)n1 [Compound 1f, 3-(2-(trifluoromethyl)phenyl) pyridine-2,6-diamine] | 0.5 to 1 | 6.7 | 0.0224 | –
COc1ccccc1-c1ccc(N)nc1C1CC1 [Compound 6i, 6-cyclopropyl-5-(2-methoxyphenyl)pyridin-2-amine] | 0.5 to 1 | 1.4 | 0.031 | –
COc1cc(F)ccc1-c1ccc(N)nc1N [Compound 2k, 3-(4-fluoro-2-methoxyphenyl) pyridine-2,6-diamine] | 0.5 to 1 | 3.2 | 0.0276 | –
Nc1ccc(Cc2cccc(Cl)c2)c(N)n1 [Compound 10d, 3-(3-chlorobenzyl)pyridine-2,6-diamine] | 0.5 to 1 | 0.9 | 0.019 | –
Nc1ccc(-c2ccccc2Cl)c(N)n1 [Compound 1b, 3-(2-chlorophenyl)pyridine-2,6-diamine] | 0.5 to 1 | 1.3 | 0.039 | –
Cc1nc(N)ccc1-c1cccc(Cl)c1Cl [Compound 6b, 5-(2,3-dichlorophenyl)-6-methylpyridin-2-amine] | 0.5 to 1 | 2 | 0.0814 | –
COCc1ccccc1-c1ccc(N)nc1N [Compound 1g, 3-(2-(methoxymethyl)phenyl) pyridine-2,6-diamine] | 0.5 to 1 | 1.2 | 0.058 | –
CC(C)c1ccccc1-c1ccc(N)nc1N [Compound 1e, 3-(2-isopropylphenyl) pyridine-2,6-diamine] | 0.1 to 0.5 | 0.98 | 0.008 | –
Nc1ccc(Cc2ccc(F)cc2)c(N)n1 [Compound 10b, 3-(4-fluorobenzyl)pyridine-2,6-diamine] | > 1 | 4.2 | 0.122 | –
CCc1ccccc1-c1ccc(N)nc1N [Compound 1d, 3-(2-ethylphenyl)pyridine-2,6-diamine] | 0.1 to 0.5 | 2 | 0.0062 | –

From patent US20210221784A1, “COMPOUNDS AND COMPOSITIONS FOR THE TREATMENT OF PAIN” (Université de Strasbourg, priority 2018, published 2021)
